Source: patent publication US11753446B2, “Beta-hairpin peptidomimetics” (POLYPHOR AG, priority 2014, dated 2023)
Where a SMILES comes first, the peptide text is derived from it. Bridges are numbered along the chain shown (N, C = ends). [ ]: non-standard residue; d: D form. Tle = CC(C)(C)[C@H](N)C(=O)O; dDab = NCC[C@@H](N)C(=O)O; Orn = NCCC[C@H](N)C(=O)O; Dab = NCC[C@H](N)C(=O)O

Tests used:
[1] = system: human red blood cells (hRBC); test: Hemolysis: hemolytic activity at 100 μg/mL, 1 h at 37° C.; conditions: red cells of human, 1 h, 100
Procedure, shortened: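 Peptides at 100 μg/mL incubated with washed 20% (v/v) human erythrocytes (~0.9×10^9 cells/mL) for 1 h at 37 °C with shaking. Released hemoglobin read at OD 540 nm in supernatant; 0% and 100% lysis from PBS/0.001% acetic acid and 2.5% Triton X-100.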

[2] = system: Acinetobacter baumannii DSM 30008; format: cell-based; conditions: DSM 30008
Procedure, shortened: (§1)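 Peptide activity was tested by NCCLS broth microdilution with slight modifications. Bacteria were diluted in cation-adjusted Mueller-Hinton II broth to approximately 10^6 CFU/mL against a 0.5 McFarland standard. They were then exposed to two-fold serial peptide dilutions in broth containing 0.002% final polysorbate 80.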

[3] = system: Escherichia coli ATCC 25922; format: cell-based; conditions: ATCC 25922
Procedure, shortened: as §1

[4] = system: Klebsiella pneumoniae ATCC 13883; format: cell-based; conditions: ATCC 13883
Procedure, shortened: as §1

SMILES	Hemolysis at 100 μg/mL [1] [%]	Acinetobacter baumannii DSM 30008 MIC [2] [µg/mL]	Escherichia coli ATCC 25922 MIC [3] [µg/mL]	Klebsiella pneumoniae ATCC 13883 MIC [4] [µg/mL]
CC(C)C[C@@H]1NC(=O)[C@H](CCCNC(=N)N)NC(=O)[C@@H](CCN)NC(=O)[C@H]([C@@H](C)O)NC(=O)[C@@H]2CSSC[C@H](NC1=O)C(=O)N[C@@H](Cc1ccc(O)cc1)C(=O)N[C@@H](CC(N)=O)C(=O)N[C@@H](CCCN)C(=O)N[C@H](CCN)C(=O)N[C@@H](CCN)C(=O)N[C@@H](Cc1c[nH]c3ccccc13)C(=O)N[C@@H](CO)C(=O)N[C@@H](Cc1ccc(O)cc1)C(=O)N2 [Example 74, cyclo(-Leu-Cys-Tyr-Asn-Orn-^DDab-Dab-Trp-Ser-Tyr-Cys-Thr-^DDab-Arg-)] (HELM PEPTIDE1{C.T.[NCC[C@@H](N[*:1])C(=O)[*:2]].R.L.C.Y.N.[Orn].[NCC[C@@H](N[*:1])C(=O)[*:2]].[Dab].W.S.Y}$PEPTIDE1,PEPTIDE1,1:R3-6:R3|PEPTIDE1,PEPTIDE1,1:R1-14:R2$$$V2.0)	1	1.5	4	1
CC(C)C[C@@H]1NC(=O)[C@H](CCCNC(=N)N)NC(=O)[C@@H](CCN)NC(=O)[C@H]([C@@H](C)O)NC(=O)[C@@H]2CCNC(=O)C[C@H](NC1=O)C(=O)N[C@@H](Cc1ccc(O)cc1)C(=O)N[C@@H](CC(N)=O)C(=O)N[C@@H](CCCN)C(=O)N[C@H](CCN)C(=O)N[C@@H](CCN)C(=O)N[C@@H](Cc1c[nH]c3ccccc13)C(=O)N[C@@H](CO)C(=O)N[C@@H](C(C)(C)C)C(=O)N2 [Example 75, cyclo(-Leu-Asp-Tyr-Asn-Orn-^DDab-Dab-Trp-Ser-tBuGly-Dab-Thr-^DDab-Arg-)] (cyclo(LDYN[Orn][dDab][Dab]WS[Tle][Dab]T[dDab]R); lactam 2-11)	1	1.5	1.5	1
CC(C)C[C@@H]1NC(=O)[C@H](CCN)NC(=O)[C@@H](CCN)NC(=O)[C@H]([C@@H](C)O)NC(=O)[C@@H]2CCNC(=O)C[C@H](NC1=O)C(=O)N[C@@H](Cc1ccc(O)cc1)C(=O)N[C@@H](CC(N)=O)C(=O)N[C@@H](CCCN)C(=O)N[C@H](CCN)C(=O)N[C@@H](CCN)C(=O)N[C@@H](Cc1c[nH]c3ccccc13)C(=O)N[C@@H](CO)C(=O)N[C@@H](C(C)(C)C)C(=O)N2 [Example 76, cyclo(-Leu-Asp-Tyr-Asn-Orn-^DDab-Dab-Trp-Ser-tBuGly-Dab-Thr-^DDab-Dab-)] (cyclo(LDYN[Orn][dDab][Dab]WS[Tle][Dab]T[dDab][Dab]); lactam 2-11)	2	1.5	1	1
CC(C)C[C@@H]1NC(=O)[C@@H]2CCCN2C(=O)[C@@H](C)NC(=O)[C@H](CO)NC(=O)[C@@H]2CCNC(=O)C[C@H](NC1=O)C(=O)N[C@@H](Cc1ccc(O)cc1)C(=O)N[C@@H](CCN)C(=O)N[C@@H](CCCN)C(=O)N[C@H](CCN)C(=O)N[C@@H](CCN)C(=O)N[C@@H](Cc1c[nH]c3ccccc13)C(=O)N[C@@H](CCN)C(=O)N[C@@H](Cc1ccc(O)cc1)C(=O)N2 [Example 77, cyclo(-Leu-Asp-Tyr-Dab-Orn-^DDab-Dab-Trp-Dab-Tyr-Dab-Ser-^DAla-Pro-)] (HELM PEPTIDE1{L.D.Y.[Dab].[Orn].[NCC[C@@H](N[*:1])C(=O)[*:2]].[Dab].W.[Dab].Y.[Dab].S.[dA].P}$PEPTIDE1,PEPTIDE1,2:R3-11:R3|PEPTIDE1,PEPTIDE1,1:R1-14:R2$$$V2.0)	1	3	1.5	2
CC(C)C[C@@H]1NC(=O)[C@H](CCCNC(=N)N)NC(=O)[C@H]2CCCN2C(=O)[C@H](C(C)C)NC(=O)[C@@H]2CSSC[C@H](NC1=O)C(=O)N[C@@H](Cc1ccc(O)cc1)C(=O)N[C@@H](CC(N)=O)C(=O)N[C@@H](CCCN)C(=O)N[C@H](CCN)C(=O)N[C@@H](CCN)C(=O)N[C@@H](Cc1c[nH]c3ccccc13)C(=O)N[C@@H](CCN)C(=O)N[C@@H](Cc1ccc(O)cc1)C(=O)N2 [Example 78, cyclo(-Leu-Cys-Tyr-Asn-Orn-^DDab-Dab-Trp-Dab-Tyr-Cys-Val-^DPro-Arg-)] (HELM PEPTIDE1{C.V.[dP].R.L.C.Y.N.[Orn].[NCC[C@@H](N[*:1])C(=O)[*:2]].[Dab].W.[Dab].Y}$PEPTIDE1,PEPTIDE1,1:R3-6:R3|PEPTIDE1,PEPTIDE1,1:R1-14:R2$$$V2.0)	1	1.5	1.5	1
CC(C)C[C@@H]1NC(=O)[C@H](CCCNC(=N)N)NC(=O)[C@@H](C)NC(=O)[C@H](C(C)C)NC(=O)[C@@H]2CSSC[C@H](NC1=O)C(=O)N[C@@H](Cc1ccc(O)cc1)C(=O)N[C@@H](CC(N)=O)C(=O)N[C@@H](CCCN)C(=O)N[C@H](CCN)C(=O)N[C@@H](CCN)C(=O)N[C@@H](Cc1c[nH]c3ccccc13)C(=O)N[C@@H](CCN)C(=O)N[C@@H](Cc1ccc(O)cc1)C(=O)N2 [Example 79, cyclo(-Leu-Cys-Tyr-Asn-Orn-^DDab-Dab-Trp-Dab-Tyr-Cys-Val-^DAla-Arg-)] (HELM PEPTIDE1{C.V.[dA].R.L.C.Y.N.[Orn].[NCC[C@@H](N[*:1])C(=O)[*:2]].[Dab].W.[Dab].Y}$PEPTIDE1,PEPTIDE1,1:R3-6:R3|PEPTIDE1,PEPTIDE1,1:R1-14:R2$$$V2.0)	1	1.5	1	1
